Molecules are shown by their SMILES.

Results on two molecules are retold here after paper PMC3317655, “The Isolation and Characterization of β-Glucogallin as a Novel Aldose Reductase Inhibitor from Emblica officinalis” (PLoS ONE, 2012).

Assay [1] deals with T1, human aldose reductase (AKR1B1) (Homo sapiens, UniProt P15121). Briefly: Ex vivo culture of transgenic mouse lenses expressing human AKR1B1; sorbitol accumulation at […] sorbinil. The conditions noted are these: read-out: % inhibition of sorbitol accumulation at 10 μM. The class given is cell-based.
For assay [2], the target named is T1, human aldose reductase (AKR1B1). Briefly: Purified recombinant enzyme, NADPH oxidation at […] nm, saturating glucose ([…]) as substrate. The class given is biochemical.

The inhibition is the change of the read-out against control, counted positive when it falls. For `O=C1NC(=O)[C@@]2(CCOc3ccc(F)cc32)N1` [sorbinil], the inhibition at 10 µM in assay [1] stood at 97%.
A word on the IC50: it is the concentration that inhibits the measured activity by half. In the case of `O=C(O[C@@H]1O[C@H](CO)[C@@H](O)[C@H](O)[C@H]1O)c1cc(O)c(O)c(O)c1` [β-glucogallin], the IC50 in assay [2] is 17 ± 1 µM.
